ChEMBL document CHEMBL1123983, “Bis(4-hydroxyphenyl)[2-(phenoxysulfonyl)phenyl]methane: isolation and structure elucidation of a novel estrogen from commercial preparations of phenol red (phenolsulfonphthalein)” (J Med Chem, 1988)

Target: Estrogen receptor (Homo sapiens) (UniProt Q92731+P03372)
Assay: Estrogen-related induction of progesterone receptor expression in MCF-7 cells at 10e-6 M
Format: cell-based
Settings: MCF7

Work on O=S(=O)(Oc1ccccc1)c1ccccc1C(c1ccc(O)cc1)c1ccc(O)cc1 yielded a PR level, % of control of 1680%.
